Reference: the OligoGym collection
HELM strings list units from the 5' end as sugar, base in round brackets, then linkage (d deoxyribose, r ribose, m 2'-O-methyl, p phosphodiester). Strings are as the collection lists them; they lack the last nucleoside at the 3' end of the tested compound. [moe] = 2'-O-(2-methoxyethyl) (MOE); [sp] = phosphorothioate linkage; [m5C] = 5-methylcytosine

Molecular target: APP
Assay: mouse, dose not given
Settings: ASO

| Substance | 3 h FOB score |
| --- | --- |
| RNA1{[moe](T)[sp].[moe](G)p.[moe](A)p.[moe](T)p.[moe](G)[sp].d([m5C])[sp].d(A)[sp].d([m5C])[sp].d(A)[sp].d(T)[sp].d(A)[sp].d(T)[sp].d([m5C])[sp].d([m5C])[sp].d(A)[sp].[moe](G)p.[moe](G)p.[moe]([m5C])[sp].[moe](T)}$$$$ (last 3' nucleoside missing) | 0.25 score 0-7 |
| RNA1{[moe](A)[sp].[moe]([m5C])p.[moe](A)p.[moe](T)p.[moe](T)[sp].d(A)[sp].d(T)[sp].d(T)[sp].d([m5C])[sp].d(T)[sp].d(A)[sp].d(T)[sp].d(A)[sp].d(A)[sp].d(A)[sp].[moe](T)p.[moe](G)p.[moe](G)[sp].[moe](A)}$$$$ (last 3' nucleoside missing) | 0 score 0-7 |
| RNA1{[moe]([m5C])[sp].[moe](T)p.[moe]([m5C])p.[moe]([m5C])p.[moe](A)p.[moe](A)[sp].d(T)[sp].d(T)[sp].d(T)[sp].d(T)[sp].d(A)[sp].d(A)[sp].d([m5C])[sp].d(T)[sp].d(T)[sp].d(G)[sp].[moe]([m5C])p.[moe](A)[sp].[moe]([m5C])}$$$$ (last 3' nucleoside missing) | 0 score 0-7 |
| RNA1{[moe](T)[sp].[moe](T)p.[moe](A)p.[moe]([m5C])p.[moe](A)[sp].d(T)[sp].d([m5C])[sp].d(A)[sp].d(T)[sp].d(T)[sp].d(T)[sp].d(T)[sp].d([m5C])[sp].d(T)[sp].d(T)[sp].[moe](G)p.[moe]([m5C])p.[moe](A)[sp].[moe](G)}$$$$ (last 3' nucleoside missing) | 0.33 score 0-7 |
| RNA1{[moe](G)[sp].[moe](G)p.[moe]([m5C])p.[moe](A)p.[moe](T)p.[moe]([m5C])p.d(A)[sp].d([m5C])[sp].d(T)[sp].d(T)[sp].d(A)[sp].d([m5C])[sp].d(A)[sp].d(A)[sp].d(A)[sp].d([m5C])[sp].[moe](T)p.[moe]([m5C])[sp].[moe](A)}$$$$ (last 3' nucleoside missing) | 0 score 0-7 |
| RNA1{[moe](G)[sp].[moe](A)p.[moe](A)p.[moe](G)p.[moe]([m5C])[sp].d(A)[sp].d(T)[sp].d(A)[sp].d(T)[sp].d(T)[sp].d([m5C])[sp].d([m5C])[sp].d(T)[sp].d([m5C])[sp].d(T)[sp].[moe](A)p.[moe](T)p.[moe]([m5C])[sp].[moe]([m5C])}$$$$ (last 3' nucleoside missing) | 0.67 score 0-7 |
| RNA1{[moe]([m5C])[sp].[moe](G)p.[moe](G)p.[moe](A)p.[moe]([m5C])[sp].d(T)[sp].d(T)[sp].d(T)[sp].d(T)[sp].d(T)[sp].d(T)[sp].d([m5C])[sp].d(T)[sp].d(T)[sp].d([m5C])[sp].[moe](T)p.[moe](T)p.[moe](G)[sp].[moe]([m5C])}$$$$ (last 3' nucleoside missing) | 0 score 0-7 |
| RNA1{[moe](A)[sp].[moe](T)p.[moe](T)p.[moe]([m5C])p.[moe](T)[sp].d(G)[sp].d(G)[sp].d(A)[sp].d([m5C])[sp].d(A)[sp].d(T)[sp].d(T)[sp].d([m5C])[sp].d(A)[sp].d(T)[sp].[moe](G)p.[moe](T)p.[moe](G)[sp].[moe]([m5C])}$$$$ (last 3' nucleoside missing) | 1 score 0-7 |
| RNA1{[moe]([m5C])[sp].[moe](T)p.[moe]([m5C])p.[moe](T)p.[moe]([m5C])[sp].d(A)[sp].d(T)[sp].d(A)[sp].d(G)[sp].d(T)[sp].d([m5C])[sp].d(T)[sp].d(T)[sp].d(A)[sp].d(A)[sp].[moe](T)p.[moe](T)p.[moe]([m5C])[sp].[moe]([m5C])}$$$$ (last 3' nucleoside missing) | 0.25 score 0-7 |
| RNA1{[moe](T)[sp].[moe](T)p.[moe](G)p.[moe](A)p.[moe](T)[sp].d(A)[sp].d(T)[sp].d(T)[sp].d(T)[sp].d(G)[sp].d(T)[sp].d([m5C])[sp].d(A)[sp].d(A)[sp].d([m5C])[sp].[moe]([m5C])p.[moe]([m5C])p.[moe](A)[sp].[moe](G)}$$$$ (last 3' nucleoside missing) | 2.5 score 0-7 |
| RNA1{[moe](A)[sp].[moe]([m5C])p.[moe](A)p.[moe](T)p.[moe]([m5C])[sp].d(A)[sp].d(T)[sp].d(A)[sp].d(T)[sp].d(T)[sp].d([m5C])[sp].d(T)[sp].d(T)[sp].d(A)[sp].d([m5C])[sp].[moe](T)p.[moe](G)p.[moe](T)[sp].[moe](T)}$$$$ (last 3' nucleoside missing) | 0 score 0-7 |
| RNA1{[moe]([m5C])[sp].[moe](T)p.[moe](A)p.[moe]([m5C])p.[moe]([m5C])[sp].d([m5C])[sp].d([m5C])[sp].d(T)[sp].d([m5C])[sp].d(G)[sp].d(G)[sp].d(A)[sp].d(A)[sp].d([m5C])[sp].d(T)[sp].[moe](T)p.[moe](G)p.[moe](T)[sp].[moe]([m5C])}$$$$ (last 3' nucleoside missing) | 0.75 score 0-7 |
| RNA1{[moe]([m5C])[sp].[moe](T)p.[moe](T)p.[moe](T)p.[moe]([m5C])[sp].d(T)[sp].d(A)[sp].d(T)[sp].d(T)[sp].d(T)[sp].d(A)[sp].d([m5C])[sp].d(T)[sp].d([m5C])[sp].d(A)[sp].[moe]([m5C])p.[moe](A)p.[moe](G)[sp].[moe]([m5C])}$$$$ (last 3' nucleoside missing) | 0 score 0-7 |
| RNA1{[moe]([m5C])[sp].[moe](A)p.[moe]([m5C])p.[moe]([m5C])p.[moe](A)[sp].d(T)[sp].d([m5C])[sp].d(T)[sp].d(A)[sp].d(T)[sp].d(A)[sp].d(A)[sp].d(T)[sp].d(A)[sp].d([m5C])[sp].[moe]([m5C])p.[moe](A)p.[moe](T)[sp].[moe]([m5C])}$$$$ (last 3' nucleoside missing) | 0 score 0-7 |
| RNA1{[moe](G)[sp].[moe](A)p.[moe]([m5C])p.[moe](A)p.[moe](T)[sp].d([m5C])[sp].d(A)[sp].d(T)[sp].d(T)[sp].d(T)[sp].d(A)[sp].d(A)[sp].d(T)[sp].d(T)[sp].d(T)[sp].[moe](G)p.[moe](T)p.[moe](G)[sp].[moe]([m5C])}$$$$ (last 3' nucleoside missing) | 0 score 0-7 |
| RNA1{[moe](A)[sp].[moe]([m5C])p.[moe](T)p.[moe](T)p.[moe]([m5C])[sp].d(T)[sp].d(A)[sp].d([m5C])[sp].d(T)[sp].d(A)[sp].d([m5C])[sp].d(T)[sp].d(T)[sp].d(T)[sp].d(G)[sp].[moe](T)p.[moe]([m5C])p.[moe](T)[sp].[moe](T)}$$$$ (last 3' nucleoside missing) | 1.5 score 0-7 |
| RNA1{[moe](G)[sp].[moe](T)p.[moe](T)p.[moe]([m5C])p.[moe]([m5C])[sp].d(A)[sp].d(A)[sp].d(A)[sp].d(G)[sp].d(A)[sp].d(T)[sp].d(T)[sp].d([m5C])[sp].d([m5C])[sp].d(A)[sp].[moe]([m5C])p.[moe](T)p.[moe](T)[sp].[moe](T)}$$$$ (last 3' nucleoside missing) | 1.25 score 0-7 |
| RNA1{[moe](A)[sp].[moe](A)p.[moe](A)p.[moe]([m5C])p.[moe](T)[sp].d([m5C])[sp].d(T)[sp].d(A)[sp].d([m5C])[sp].d([m5C])[sp].d([m5C])[sp].d([m5C])[sp].d(T)[sp].d([m5C])[sp].d(G)[sp].[moe](G)p.[moe](A)p.[moe](A)[sp].[moe]([m5C])}$$$$ (last 3' nucleoside missing) | 1 score 0-7 |
